Assay results: patent US20260226006A1, “INDOLE COMPOUND, PREPARATION METHOD THEREFOR AND USE THEREOF” (SUZHOU MERNA THERAPEUTICS CO. LTD, priority 2023, published 2026)

Assays:
HaCat cells = test: m6A methylation level of human HaCat keratinocytes, EpiQuik m6A RNA methylation quantification kit (Example 20); type: cell-based; conditions: for abnormal increase in the RNA m6A level of human keratinocytes caused by chemotherapeutic drugs and multikinase inhibitors: 400 nM compound after 50 nM drug; for m6A fold change relative to control group 1: HaCat cells, 24 hours
Summary of the method: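 HaCat keratinocytes in DMEM/10% FBS given 50 nM sorafenib, capecitabine, docetaxel or osimertinib, then 400 nM test compound or nicotinamide, and cultured 24 hours at 37° C. Total RNA m6A quantified by EpiQuik ELISA at 450 nm against a standard curve, expressed as percentage of RNA input.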

paw plantar skin of rats = test: Rat models with hand-foot skin reaction, topical ointment (Example 22); type: in vivo, SD rats; conditions: for Incidence rate: 30 days; for incidence rate of hand-foot skin reaction at a drug application site: compounds at a mass content of 1% in ointment; for incidence rate of hand-foot skin reaction in all paws of the rats: compounds at mass contents of 3% and 10% in ointment; for differentiation of keratinocytes both in vitro and in vivo: summary of Examples 21 and 22
Experimental: After adaptive feeding for one week, SD rats (with a body weight of approximately 200 g) were randomly divided into groups according to the body weight, with 12 rats in each group. Modeling drugs (including sorafenib, erlotinib, afatinib, and osimertinib) were respectively dissolved in a solution containing 5% of DMSO, 45% of PEG400, and 50% of H2O, and the modeling drugs were diluted to required concentrations and then administered once daily by gavage at doses shown in Table 3. After administration by gavage for 1 hour, 0.05 g of ointments containing different mass proportions of test compounds were evenly applied to left paws of the rats, a blank matrix ointment was applied to right paws of the rats to serve as a self-control, and no ointment was applied to the rats in a blank control group. After drug application, four limbs were continuously immobilized for 2 hours, then wiped with clean water to remove the residual drugs, removed from immobilization, and restored to free movement. The modeling drugs, the blank matrix ointment, and the ointments containing the test compounds were all administered once daily. After continuous administration for 30 days, the rats were euthanized, and paw plantar skin tissues were collected, fixed in 10% neutral formalin, […]. The ointments for the test compounds were prepared by mixing the compounds, white beeswax, white petrolatum, and light liquid paraffin in specific ratios (weight ratios of 3 ointments were respectively 1:18:58:23, 3:18:57:22, and 10:20:40:30). The blank matrix ointment was prepared by mixing white beeswax, white petrolatum, and light liquid paraffin in a specific ratio (weight ratio of 18:60:22).
Tissue staining: After dewaxing and rehydration, the paw plantar skin tissue sections of the above rats were stained in a hematoxylin solution for several minutes, cleaned, and placed in 1% acid alcohol for soaking until the sections faded to light blue-red. After cleaning with running water for 5 minutes, the sections were stained with eosin for 2-3 minutes, cleaned to remove excess dyes, dehydrated, then permeabilized by adding xylene for several minutes, and sealed and fixed with a neutral resin. The stratum corneum was observed under an optical microscope, and the thickness of the epidermal stratum corneum was measured using Dmetrix software.
Immunohistochemical staining: After dewaxing and hydration, the paw plantar skin tissue sections of the above rats were incubated with 3% H2O2 at room temperature for 30 minutes and blocked with 10% goat serum for 30 minutes after antigen retrieval. A KRT1 antibody (Abcam, ab93652) and a Loricrin antibody (Abcam, ab183646) were added dropwise, the sections were incubated overnight at 4° C., and an HRP secondary antibody (ZSGB-BIO, PV-6001) and a DAB kit (ZSG-BIO, ZLI9017) were added for color development. The sections were re-stained with hematoxylin, cleaned, and sealed and fixed with a neutral resin, and the expression amounts of KRT1 and Loricrin were observed under an optical microscope.
An incidence rate calculation method involves a proportion of animals in each group meeting the above criteria for determining successful modeling, that is, incidence rate=(number of successfully modeled rats/total number of rats in the group)*100%. […]

HaCaT keratinocytes = test: Inhibition of HBEGF-induced differentiation of HaCaT keratinocytes, marker mRNA by RT-PCR (Example 21); type: cell-based, human; conditions: 2.5 ng/mL human recombinant HBEGF protein + test compound, 24 hours
Summary of the method: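 HaCaT cells cultured 24 h at 37° C, then exposed for 24 h to 2.5 ng/mL recombinant human HBEGF with test compounds; DMSO and HBEGF-only controls. Total RNA (1 μg) reverse-transcribed; KRT1, KRT10, Loricrin and Involucrin mRNA measured by SYBR RT-PCR and agarose gel electrophoresis.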

[1] = 50 nM capecitabine + 400 nM test compound
[2] = 50 nM docetaxel + 400 nM test compound
[3] = 50 nM osimertinib + 400 nM test compound
[4] = 50 nM sorafenib + 400 nM test compound
[5] = afatinib 50 mg/kg, 1% compound ointment on left paw, left paw
[6] = afatinib 50 mg/kg, 1% compound ointment on left paw, right paw (blank matrix ointment)
[7] = afatinib 50 mg/kg, 3% compound ointment on left paw, left paw
[8] = afatinib 50 mg/kg, 3% compound ointment on left paw, right paw (blank matrix ointment)
[9] = afatinib 50 mg/kg, 10% compound ointment on left paw, left paw
[10] = afatinib 50 mg/kg, 10% compound ointment on left paw, right paw (blank matrix ointment)
[11] = erlotinib 70 mg/kg, 1% compound ointment on left paw, left paw
[12] = erlotinib 70 mg/kg, 1% compound ointment on left paw, right paw (blank matrix ointment)
[13] = erlotinib 70 mg/kg, 3% compound ointment on left paw, left paw
[14] = erlotinib 70 mg/kg, 3% compound ointment on left paw, right paw (blank matrix ointment)
[15] = erlotinib 70 mg/kg, 10% compound ointment on left paw, left paw
[16] = erlotinib 70 mg/kg, 10% compound ointment on left paw, right paw (blank matrix ointment)
[17] = osimertinib 60 mg/kg, 1% compound ointment on left paw, left paw
[18] = osimertinib 60 mg/kg, 1% compound ointment on left paw, right paw (blank matrix ointment)
[19] = osimertinib 60 mg/kg, 3% compound ointment on left paw, right paw (blank matrix ointment)
[20] = osimertinib 60 mg/kg, 10% compound ointment on left paw, left paw
[21] = osimertinib 60 mg/kg, 10% compound ointment on left paw, right paw (blank matrix ointment)
[22] = paw plantar skin of modeled rats, topical ointment
[23] = sorafenib 100 mg/kg, 1% compound ointment on left paw, left paw
[24] = sorafenib 100 mg/kg, 1% compound ointment on left paw, right paw (blank matrix ointment)
[25] = sorafenib 100 mg/kg, 3% compound ointment on left paw, left paw
[26] = sorafenib 100 mg/kg, 3% compound ointment on left paw, right paw (blank matrix ointment)
[27] = sorafenib 100 mg/kg, 10% compound ointment on left paw, left paw
[28] = sorafenib 100 mg/kg, 10% compound ointment on left paw, right paw (blank matrix ointment)
[29] = osimertinib 60 mg/kg, 3% compound ointment on left paw, left paw

SMILES | abnormal increase in the RNA m6A level of human keratinocytes caused by chemotherapeutic drugs and multikinase inhibitors (HaCat cells) | m6A fold change relative to control group 1 (HaCat cells; [1]) | m6A fold change relative to control group 1 (HaCat cells; [2]) | m6A fold change relative to control group 1 (HaCat cells; [3]) | m6A fold change relative to control group 1 (HaCat cells; [4]) | Incidence rate (paw plantar skin of rats; [5]) | Incidence rate (paw plantar skin of rats; [6]) | Incidence rate (paw plantar skin of rats; [7]) | Incidence rate (paw plantar skin of rats; [8]) | Incidence rate (paw plantar skin of rats; [9]) | Incidence rate (paw plantar skin of rats; [10]) | incidence rate of hand-foot skin reaction at a drug application site (paw plantar skin of rats) | incidence rate of hand-foot skin reaction in all paws of the rats (paw plantar skin of rats) | Incidence rate (paw plantar skin of rats; [11]) | Incidence rate (paw plantar skin of rats; [12]) | Incidence rate (paw plantar skin of rats; [13]) | Incidence rate (paw plantar skin of rats; [14]) | Incidence rate (paw plantar skin of rats; [15]) | Incidence rate (paw plantar skin of rats; [16]) | Incidence rate (paw plantar skin of rats; [17]) | also measured
NC(=O)C1CCCc2c1[nH]c1ccc(Cl)cc21 (stereo not drawn) [Compound 2, 6-chloro-2,3,4,9-tetrahydro-1H-carbazole-1-carboxamide] | effectively inhibit | 2.3 | 3.3 | 2.2 | 2.4 | 2/12 (17%) | 7/12 (58%) | 2/12 (17%) | 5/12 (42%) | 1/12 (8%) | 5/12 (42%) | significantly decrease | significantly decrease | 3/12 (25%) | 10/12 (83%) | 2/12 (17%) | 4/12 (33%) | 1/12 (8%) | 4/12 (33%) | 2/12 (17%) | Incidence rate (paw plantar skin of rats; [18]): 9/12 (75%); Incidence rate (paw plantar skin of rats; [19]): 4/12 (33%); Incidence rate (paw plantar skin of rats; [20]): 0/12 (0%); Incidence rate (paw plantar skin of rats; [21]): 3/12 (25%); formation of blisters, inflammatory cell infiltration in the dermis and skin congestion (pathological scoring) (paw plantar skin of rats; [22]): effectively improve; Incidence rate (paw plantar skin of rats; [23]): 3/12 (25%); Incidence rate (paw plantar skin of rats; [24]): 8/12 (67%); Incidence rate (paw plantar skin of rats; [25]): 1/12 (8%); Incidence rate (paw plantar skin of rats; [26]): 5/12 (42%); Incidence rate (paw plantar skin of rats; [27]): 0/12 (0%); Incidence rate (paw plantar skin of rats; [28]): 5/12 (42%); differentiation of keratinocytes both in vitro and in vivo (paw plantar skin of rats): effectively inhibit; stratum corneum thickness of the paw plantar skin of the modeled rats (paw plantar skin of rats; topical ointment): effectively decrease; mRNA expression amounts of HaCaT differentiation markers KRT1, KRT10, Loricrin, and Involucrin (HaCaT keratinocytes): significantly inhibited
CN1CC[C@H](C(N)=O)c2[nH]c3ccc(Cl)cc3c21 [Compound 8b, (S)-8-chloro-1-methyl-2,3,4,5-tetrahydropyrido[3,2-b]indole-4-carboxamide] | effectively inhibit | 1.0 | 1.2 | 1.0 | 1.0 | 1/12 (8%) | 9/12 (75%) | 1/12 (8%) | 4/12 (33%) | 0/12 (0%) | 1/12 (8%) | significantly decrease | significantly decrease | 2/12 (17%) | 10/12 (83%) | 1/12 (8%) | 4/12 (33%) | 0/12 (0%) | 0/12 (0%) | 1/12 (8%) | Incidence rate (paw plantar skin of rats; [18]): 9/12 (75%); Incidence rate (paw plantar skin of rats; [29]): 1/12 (8%); Incidence rate (paw plantar skin of rats; [19]): 3/12 (25%); Incidence rate (paw plantar skin of rats; [20]): 0/12 (0%); Incidence rate (paw plantar skin of rats; [21]): 0/12 (0%); formation of blisters, inflammatory cell infiltration in the dermis and skin congestion (pathological scoring) (paw plantar skin of rats; [22]): effectively improve; Incidence rate (paw plantar skin of rats; [23]): 1/12 (8%); Incidence rate (paw plantar skin of rats; [24]): 8/12 (67%); Incidence rate (paw plantar skin of rats; [25]): 1/12 (8%); Incidence rate (paw plantar skin of rats; [26]): 3/12 (25%); Incidence rate (paw plantar skin of rats; [27]): 0/12 (0%); Incidence rate (paw plantar skin of rats; [28]): 1/12 (8%); differentiation of keratinocytes both in vitro and in vivo (paw plantar skin of rats): effectively inhibit; stratum corneum thickness of the paw plantar skin of the modeled rats (paw plantar skin of rats; topical ointment): effectively decrease; mRNA expression amounts of HaCaT differentiation markers KRT1, KRT10, Loricrin, and Involucrin (HaCaT keratinocytes): significantly inhibited
NC(=O)C1c2[nH]c3ccc(Cl)cc3c2C2CCC1C2 [Compound 5a, (S)-2-chloro-5,6,7,8,9,10-hexahydro-7,10-methanocyclohepta[b]indole-6-carboxamide] | effectively inhibit | 1.2 | 1.0 | 1.2 | 1.0 | 1/12 (8%) | 9/12 (75%) | 1/12 (8%) | 4/12 (33%) | 0/12 (0%) | 1/12 (8%) | significantly decrease | significantly decrease | 2/12 (17%) | 9/12 (75%) | 2/12 (17%) | 5/12 (42%) | 0/12 (0%) | 0/12 (0%) | 2/12 (17%) | Incidence rate (paw plantar skin of rats; [18]): 9/12 (75%); Incidence rate (paw plantar skin of rats; [29]): 1/12 (8%); Incidence rate (paw plantar skin of rats; [19]): 4/12 (33%); Incidence rate (paw plantar skin of rats; [20]): 0/12 (0%); Incidence rate (paw plantar skin of rats; [21]): 1/12 (8%); formation of blisters, inflammatory cell infiltration in the dermis and skin congestion (pathological scoring) (paw plantar skin of rats; [22]): effectively improve; formation of blisters, inflammatory cell infiltration in the dermis and skin congestion (tissue staining) (paw plantar skin of rats; [22]): effectively improve; Incidence rate (paw plantar skin of rats; [23]): 1/12 (8%); Incidence rate (paw plantar skin of rats; [24]): 10/12 (83%); Incidence rate (paw plantar skin of rats; [25]): 1/12 (8%); Incidence rate (paw plantar skin of rats; [26]): 5/12 (42%); Incidence rate (paw plantar skin of rats; [27]): 0/12 (0%); Incidence rate (paw plantar skin of rats; [28]): 2/12 (17%; differentiation of keratinocytes both in vitro and in vivo (paw plantar skin of rats): effectively inhibit; stratum corneum thickness of the paw plantar skin of the modeled rats (paw plantar skin of rats; topical ointment): effectively decrease; mRNA expression amounts of HaCaT differentiation markers KRT1, KRT10, Loricrin, and Involucrin (HaCaT keratinocytes): significantly inhibited
